Values after ≈ are worked out from the molar mass of the structure shown. Values joined by “and” are separate entries in the source; they are usually repeats but may differ in a detail not shown here. Equal values may be shown once.
Assays:
Assay type in all cases: physicochemical
[1] = Solubility in neat solvents, shake-flask with spectrophotometric determination; conditions: for solubility at 24 h: 25 °C, organic solvent or mixture, thermodynamic from solid
Experimental: (§1) The calibration curves for each derivative were obtained using successful dilutions of initial stock solutions followed by spectrophotometric measurements of the obtained solutions with decreasing concentration. The concentration ranges for the derivatives 1, 2, and 3 were 0.0081–0.0405 mg/mL, 0.0077–0.0385 mg/mL, and 0.0068–0.017 mg/mL, respectively. Methanol was used both as a solvent, as well as a reference for spectrophotometric measurements. […] The A360 spectrophotometer from AOE Instruments was used for the preparation of the calibration curves. […] Three calibration curves were prepared for each derivative and then averaged.
(§2) A multi-step procedure was employed in order to find the solubility of the studied derivatives in the selected solvents. First of all, the excess amount of the considered compound was added to test tubes containing either neat solvents or their mixtures with water in different proportions, thus forming binary solvents. Saturated solutions were obtained in this way, placed in a Shaker Incubator ES-20/60 from Biosan, and incubated for 24 h at 298.1 K. The temperature adjustment was possible with a 0.1-degree accuracy, and the variance within a 24 h cycle was 0.5 degrees. The samples were simultaneously mixed at 60 rev/min. After incubation, the samples were filtered with the help of plastic syringes equipped with PTFE filters with 0.22 µm pore size. The obtained filtrates were diluted with methanol in another set of test tubes. In order to determine the mole fractions of a solute in the solution, 1 mL of the filtered samples was weighed in 10 mL volumetric flasks using a RADWAG AS 110 R2.PLUS analytical balance. The samples diluted with methanol were measured spectrophotometrically using the same instrument as was used in the case of calibration curves. The spectra were recorded in the wavelength range of 190–500 nm, and the resolution was 1 nm. Methanol was used if further dilution of the sample was required, and it was also used as a reference for calibrating the spectrophotometer. The absorbance values at 315 nm, 321 nm, and 321 nm were taken into account for derivatives 1, 2, and 3, respectively. Based on the calibration curves, the concentration of the solute in the samples was determined together with its mole fraction. Three separate measurements were conducted, and the final values are the results of averaging them.

[2] = Solubility in NMP-water binary mixtures; conditions: for solubility at 24 h: thermodynamic from solid
Experimental: as §1, §2

[3] = Solubility in DMSO-water binary mixtures; conditions: for solubility at 24 h: 25 °C, thermodynamic from solid
Experimental: as §1, §2

[4] = neat γ-nonanoic lactone, 298.1 K

## O=C1Nc2ccc([N+](=O)[O-])cc2C1=NNC(=O)c1cccc([N+](=O)[O-])c1 [derivative 3, 3-nitro-N′-[5-nitro-2-oxo-1,2-dihydro-3H-indol-3-ylidene]benzohydrazide]
[1]; neat DMF, 298.1 K
  solubility at 24 h: 1690 µg/mL (≈ 4.76 mM)
  solubility x: 3.69 × 10^−4 mole fraction and 3.69 (0.05) × 10^−4 mole fraction
[1]; neat DMP, 298.1 K
  solubility at 24 h: 80 µg/mL (≈ 0.225 mM)
  solubility x: 0.27 (0.01) × 10^−4 mole fraction
[1]; neat DMSO, 298.1 K
  solubility at 24 h: 3090 µg/mL (≈ 8.7 mM)
  solubility x: 6.12 × 10^−4 mole fraction and 6.12 (0.10) × 10^−4 mole fraction
[1]; neat NMP, 298.1 K
  solubility at 24 h: 8990 µg/mL (≈ 25.3 mM)
  solubility x: 2.44 × 10^−3 mole fraction and 2.44 (0.07) × 10^−3 mole fraction
[1]; neat acetone, 298.1 K
  solubility at 24 h: 210 µg/mL (≈ 0.591 mM)
  solubility x: 0.43 (0.01) × 10^−4 mole fraction
[1]; neat acetonitrile, 298.1 K
  solubility at 24 h: 170 µg/mL (≈ 0.479 mM)
[1]; neat cyrene, 298.1 K
  solubility at 24 h: 290 µg/mL (≈ 0.816 mM)
  solubility x: 0.83 (0.01) × 10^−4 mole fraction
[1]; neat diglyme, 298.1 K
  solubility at 24 h: 520 µg/mL (≈ 1.46 mM)
  solubility x: 2.08 (0.07) × 10^−4 mole fraction
[1]; neat dioxane, 298.1 K
  solubility at 24 h: 310 µg/mL (≈ 0.873 mM)
  solubility x: 0.74 (0.01) × 10^−4 mole fraction
[1]; neat ethyl lactate, 298.1 K
  solubility at 24 h: 180 µg/mL (≈ 0.507 mM)
  solubility x: 0.57 (0.01) × 10^−4 mole fraction
[1]; neat methanol, 298.1 K
  solubility at 24 h: 60 µg/mL (≈ 0.169 mM)
[1]; neat tetraglyme, 298.1 K
  solubility at 24 h: 430 µg/mL (≈ 1.21 mM)
  solubility x: 2.67 (0.09) × 10^−4 mole fraction
[1]; neat triglyme, 298.1 K
  solubility at 24 h: 230 µg/mL (≈ 0.647 mM)
  solubility x: 1.17 (0.05) × 10^−4 mole fraction
[1]; neat γ-heptalactone, 298.1 K
  solubility at 24 h: 440 µg/mL (≈ 1.24 mM)
  solubility x: 1.59 (0.04) × 10^−4 mole fraction
[1]; [4]
  solubility at 24 h: 280 µg/mL (≈ 0.788 mM)
  solubility x: 1.26 (0.05) × 10^−4 mole fraction
[1]; neat 1-butanol
  solubility at 24 h: 20 µg/mL (≈ 0.0563 mM)
[1]; neat 1-propanol
  solubility at 24 h: 20 µg/mL (≈ 0.0563 mM)
[1]; neat 4FM
  solubility at 24 h: 940 µg/mL (≈ 2.65 mM)
[1]; neat 4FM, 298.1 K
  solubility x: 2.65 (0.11) × 10^−4 mole fraction
[1]; neat ethanol
  solubility at 24 h: 30 µg/mL (≈ 0.0844 mM)
[1]; neat ε-caprolactone
  solubility at 24 h: 340 µg/mL (≈ 0.957 mM)
[1]; neat ε-caprolactone, 298.1 K
  solubility x: 1.02 (0.02) × 10^−4 mole fraction
[2]; NMP-water binary mixture, x*NMP 0.1, 25 °C, aqueous with cosolvent or surfactant or cyclodextrin, x*NMP 0.1, 298.1 K
  solubility at 24 h: 1580 µg/mL (≈ 4.45 mM)
[2]; NMP-water binary mixture, x*NMP 0.2, 25 °C, aqueous with cosolvent or surfactant or cyclodextrin, x*NMP 0.2, 298.1 K
  solubility at 24 h: 3290 µg/mL (≈ 9.26 mM)
[2]; NMP-water binary mixture, x*NMP 0.3, 25 °C, aqueous with cosolvent or surfactant or cyclodextrin, x*NMP 0.3, 298.1 K
  solubility at 24 h: 4940 µg/mL (≈ 13.9 mM)
[2]; NMP-water binary mixture, x*NMP 0.4, 25 °C, aqueous with cosolvent or surfactant or cyclodextrin, x*NMP 0.4, 298.1 K
  solubility at 24 h: 6490 µg/mL (≈ 18.3 mM)
[2]; NMP-water binary mixture, x*NMP 0.7, 25 °C, aqueous with cosolvent or surfactant or cyclodextrin, x*NMP 0.7, 298.1 K
  solubility at 24 h: 9560 µg/mL (≈ 26.9 mM)
[2]; NMP-water binary mixture, x*NMP 0.8, 25 °C, aqueous with cosolvent or surfactant or cyclodextrin, x*NMP 0.8, 298.1 K
  solubility at 24 h: 10200 µg/mL (≈ 28.7 mM)
[2]; NMP-water binary mixture, x*NMP 0.9, 25 °C, aqueous with cosolvent or surfactant or cyclodextrin, x*NMP 0.9, 298.1 K
  solubility at 24 h: 9710 µg/mL (≈ 27.3 mM)
[2]; NMP-water binary solvent, 25 °C, aqueous with cosolvent or surfactant or cyclodextrin, x*NMP 0.5, 298.1 K
  solubility at 24 h: 7720 µg/mL (≈ 21.7 mM)
[2]; NMP-water binary solvent, 25 °C, aqueous with cosolvent or surfactant or cyclodextrin, x*NMP 0.6, 298.1 K
  solubility at 24 h: 8710 µg/mL (≈ 24.5 mM)
[2]; NMP-water series, x*NMP 1.0, 25 °C, organic solvent or mixture, x*NMP 1.0, 298.1 K
  solubility at 24 h: 8990 µg/mL (≈ 25.3 mM)
[2]; x*NMP 0.1, 298.1 K
  solubility x: 1.12 (0.01) × 10^−4 mole fraction
[2]; x*NMP 0.2, 298.1 K
  solubility x: 3.05 (0.03) × 10^−4 mole fraction
[2]; x*NMP 0.3, 298.1 K
  solubility x: 5.74 (0.10) × 10^−4 mole fraction
[2]; x*NMP 0.4, 298.1 K
  solubility x: 8.92 (0.10) × 10^−4 mole fraction
[2]; x*NMP 0.5, 298.1 K
  solubility x: 1.24 (0.01) × 10^−3 mole fraction
[2]; x*NMP 0.6, 298.1 K
  solubility x: 1.60 (0.02) × 10^−3 mole fraction
[2]; x*NMP 0.7, 298.1 K
  solubility x: 1.99 (0.02) × 10^−3 mole fraction
[2]; x*NMP 0.8, 298.1 K
  solubility x: 2.29 (0.02) × 10^−3 mole fraction
[2]; x*NMP 0.9, 298.1 K
  solubility x: 2.40 (0.03) × 10^−3 mole fraction
[2]; x*NMP 1.0, 298.1 K
  solubility x: 2.44 (0.06) × 10^−3 mole fraction
[3]; DMSO-water binary mixture, aqueous with cosolvent or surfactant or cyclodextrin, x*DMSO 0.1, 298.1 K
  solubility at 24 h: 860 µg/mL (≈ 2.42 mM)
[3]; DMSO-water binary mixture, aqueous with cosolvent or surfactant or cyclodextrin, x*DMSO 0.2, 298.1 K
  solubility at 24 h: 1580 µg/mL (≈ 4.45 mM)
[3]; DMSO-water binary mixture, aqueous with cosolvent or surfactant or cyclodextrin, x*DMSO 0.3, 298.1 K
  solubility at 24 h: 2480 µg/mL (≈ 6.98 mM)
[3]; DMSO-water binary mixture, aqueous with cosolvent or surfactant or cyclodextrin, x*DMSO 0.4, 298.1 K
  solubility at 24 h: 3300 µg/mL (≈ 9.29 mM)
[3]; DMSO-water binary mixture, aqueous with cosolvent or surfactant or cyclodextrin, x*DMSO 0.5, 298.1 K
  solubility at 24 h: 3750 µg/mL (≈ 10.6 mM)
[3]; DMSO-water binary mixture, aqueous with cosolvent or surfactant or cyclodextrin, x*DMSO 0.6, 298.1 K
  solubility at 24 h: 3950 µg/mL (≈ 11.1 mM)
[3]; DMSO-water binary mixture, aqueous with cosolvent or surfactant or cyclodextrin, x*DMSO 0.7, 298.1 K
  solubility at 24 h: 4010 µg/mL (≈ 11.3 mM)
[3]; DMSO-water binary mixture, aqueous with cosolvent or surfactant or cyclodextrin, x*DMSO 0.8, 298.1 K
  solubility at 24 h: 3850 µg/mL (≈ 10.8 mM)
[3]; DMSO-water binary mixture, aqueous with cosolvent or surfactant or cyclodextrin, x*DMSO 0.9, 298.1 K
  solubility at 24 h: 3540 µg/mL (≈ 9.96 mM)
[3]; DMSO-water series, organic solvent or mixture, x*DMSO 1.0, 298.1 K
  solubility at 24 h: 3090 µg/mL (≈ 8.7 mM)
[3]; x*DMSO 0.2, 298.1 K
  solubility x: 1.21 (0.01) × 10^−4 mole fraction
[3]; x*DMSO 0.3, 298.1 K
  solubility x: 2.29 (0.01) × 10^−4 mole fraction
[3]; x*DMSO 0.4, 298.1 K
  solubility x: 3.57 (0.03) × 10^−4 mole fraction
[3]; x*DMSO 0.5, 298.1 K
  solubility x: 4.59 (0.04) × 10^−4 mole fraction
[3]; x*DMSO 0.6, 298.1 K
  solubility x: 5.45 (0.03) × 10^−4 mole fraction
[3]; x*DMSO 0.7, 298.1 K
  solubility x: 6.09 (0.03) × 10^−4 mole fraction
[3]; x*DMSO 0.8, 298.1 K
  solubility x: 6.47 (0.04) × 10^−4 mole fraction
[3]; x*DMSO 0.9, 298.1 K
  solubility x: 6.51 (0.04) × 10^−4 mole fraction
[3]; x*DMSO 1.0, 298.1 K
  solubility x: 6.12 (0.07) × 10^−4 mole fraction

Source: publication PMC10669656, “ADMET and Solubility Analysis of New 5-Nitroisatine-Based Inhibitors of CDK2 Enzymes” (Biomedicines, 2023)
